In patent US12396984B2, “Managing microbial dysbiosis with temocillin” (Entasis Therapeutics, Inc., priority 2019, dated 2025):
In brackets after ≈: the same amount, converted by molar mass. Like-named read-outs stand apart in the source and are kept apart here.

Experiments:
[1] = tested on: ATCC 15702 Bifidobacterium infantis; test: Agar-dilution antibacterial assay under anaerobic conditions; format: cell-based; conditions: ATCC15702, Actinobacteria
Procedure: (§1) Representatives of human gut anaerobic commensals belonging to the 3 major phyla, Firmicutes, Actinobacteria and Bacteroidetes were tested in standard agar-dilution antibacterial assays run under anaerobic conditions. Firmicutes and Actinobacteria are part of the healthy human gut and their levels are compromised in Crohn's patients.

[2] = tested on: ATCC 23272 Lactobacillus reuteri; test: as above; format: cell-based; conditions: Limosilactobacillus reuteri, ATCC23272, Firmicutes
Procedure: as §1

[3] = tested on: ATCC 25986 Collinsella aerofaciens; test: as above; format: cell-based; conditions: ATCC25986, Actinobacteria
Procedure: as §1

[4] = tested on: MMX 10069 Bifidobacterium adolescentis; test: as above; format: cell-based; conditions: Actinobacteria
Procedure: as §1

[5] = tested on: MMX 1722 Lactobacillus casei; test: as above; format: cell-based; conditions: Lacticaseibacillus casei, Firmicutes
Procedure: as §1

[6] = tested on: MMX 3478 Bacteroides fragilis; test: as above; format: cell-based; conditions: Bacteroidetes
Procedure: as §1

[7] = tested on: MMX 6660 Streptococcus intermedius; test: as above; format: cell-based; conditions: Firmicutes
Procedure: as §1

[8] = tested on: MMX 9711 Bacteroides salyersiae; test: as above; format: cell-based; conditions: Bacteroidetes
Procedure: as §1

[9] = tested on: MMX 9797 Clostridium innocuum; test: as above; format: cell-based; conditions: Firmicutes
Procedure: as §1

[10] = tested on: ATCC 12290 Bacteroides thetaiotaomicron; test: microbe, parasite or virus in culture; format: cell-based
Procedure: as §1

[11] = tested on: Firmicutes, Actinobacteria and Bacteroidetes; test: Agar-dilution antibacterial assay, human gut anaerobic commensals (panel summary); format: cell-based; conditions: for antibacterial activity against firmicutes, actinobacteria and bacteroidetes (normal GI flora): summary in words
Procedure: as §1

[12] = tested on: AIEC strain (Phylotype D); test: GI AIEC decolonization murine model; format: in vivo, C57BL/6J mice; conditions: 30 mg/kg by oral gavage, FIG. 1
Procedure: A GI AIEC decolonization murine model studies were performed using a previously published murine model as the basis and run in accordance with animal ethical guidelines at an external contract research organization. Healthy C57BL/6J mice were first administered streptomycin by oral gavage. An AIEC strain (Phylotype D) was then administered at approximately 1-5×10^6 cfu per mouse by oral gavage and fecal pellets were enumerated for AIEC burden. Upon stable colonization (usually after 48 h post-AIEC administration), mice were sorted into three groups of 4 animals each. […] The third group was the control and was given an equivalent volume of sterile saline by oral gavage. Fecal pellets were recovered at various times as indicated on the X-axis of FIG. 1 and AIEC burden quantified by dilution and plating. Two successive fecal pellets were recovered from each mouse per group to sufficiently power the data.

gut microbiome = test: Post-treatment measurement of microbiome health (16S rRNA gene sequencing of fecal pellets); format: in vivo, mice; conditions: 30 mg/kg oral gavage once a day for 3 days, p<0.05
Procedure: Mice were dosed once a day for 3 consecutive days post AIEC stable GI colonization. Fecal pellets from four mice (1-2 per mouse) were pooled and subjected to bacterial DNA enrichment and analyzed using the Illumina MiSeq 2. Bacterial abundance and diversity was quantified using 16S rRNA gene sequencing data, analyzed and compared with naïve mice.

Crohn's AIEC Isolates [13] = conditions: AIEC Crohn's clinical isolates
Crohn's AIEC Isolates [14] = test: microbe, parasite or virus in culture; conditions: Escherichia coli
[15] = ATCC12290, Bacteroidetes, anaerobic agar dilution, read-out: MIC

Row | SMILES | MIC [1] [µg/mL] | MIC [2] [µg/mL] | MIC [3] [µg/mL] | MIC [4] [µg/mL] | MIC [5] [µg/mL] | MIC [6] [µg/mL] | MIC [7] [µg/mL] | MIC [8] [µg/mL] | MIC [9] [µg/mL] | MIC [10, 15] [µg/mL] | antibacterial activity against firmicutes, actinobacteria and bacteroidetes (normal GI flora) [11] | other results
1 | CO[C@H]1/C=C/O[C@@]2(C)Oc3c(C)c(O)c4c(O)c(c5c(nc6cc(C)ccn65)c4c3C2=O)NC(=O)/C(C)=C\C=C\[C@H](C)[C@H](O)[C@@H](C)[C@@H](O)[C@@H](C)[C@H](OC(C)=O)[C@@H]1C [Rifaximin] | 0.125 (≈ 0.159 µM) | 0.06 (≈ 0.0763 µM) | ≤ 0.03 | 0.5 (≈ 0.636 µM) | 0.25 (≈ 0.318 µM) | 0.25 (≈ 0.318 µM) | 0.5 (≈ 0.636 µM) | 0.5 (≈ 0.636 µM) | > 32 | ≤ 0.03 | broad potent antibacterial activities | 
2 | Cc1ncc([N+](=O)[O-])n1CCO [Metronidazole] | 8 (≈ 46.7 µM) | > 64 | 1 (≈ 5.84 µM) | 8 (≈ 46.7 µM) | > 64 | 8 (≈ 46.7 µM) | > 64 | 2 (≈ 11.7 µM) | 1 (≈ 5.84 µM) |  | broad potent antibacterial activities | MIC ([10]; ATCC12290): 0.25 µg/mL (≈ 1.46 µM)
3 | O=C(O)c1cn(C2CC2)c2cc(N3CCNCC3)c(F)cc2c1=O [Ciprofloxacin] | 4 (≈ 12.1 µM) | 32 (≈ 96.6 µM) | 0.5 (≈ 1.51 µM) | 32 (≈ 96.6 µM) | 1 (≈ 3.02 µM) | 16 (≈ 48.3 µM) | 1 (≈ 3.02 µM) | 16 (≈ 48.3 µM) |  |  | broad potent antibacterial activities | 
4 | CO[C@@]1(NC(=O)C(C(=O)O)c2ccsc2)C(=O)N2[C@@H](C(=O)O)C(C)(C)S[C@@H]21 (stereo partly drawn) [Temocillin, temocillin] | > 256 | > 256 | > 256 | > 256 | > 256 | 256 (≈ 618 µM) | > 256 | > 256 | > 256 | > 256 | little or no effect on the normal GI flora | MIC ([11]; certain firmicutes, actinobacteria and bacteroidetes): > 256 µg/mL; AIEC burden in feces (log10 bacterial burden) [12]: effective at lowering AIEC burden in the murine GI tract and performed as well as the current standard-of-care antibiotic, ciprofloxacin; AIEC burden in feces (log10 bacterial burden) ([12]; listed as temocillin): effective at lowering the AIEC burden in the murine GI tract; AIEC burden after cessation of treatment (rebound) ([12]; post-treatment): effective at maintaining the AIEC burden low for days after cessation of treatment; time AIEC bacterial growth remained low after treatment ([12]; post-treatment): at least 7 days; richness (number of OTUs) (gut microbiome; FIG. 2A): comparable to the untreated (naive) mice and were higher than ciprofloxacin; diversity (Shannon index) (gut microbiome; FIG. 2B): comparable to the untreated (naive) mice and were higher than ciprofloxacin; antibacterial activity vs. ciprofloxacin resistant isolates (Crohn's AIEC Isolates [13]): maintains antibacterial activity vs. ciprofloxacin resistant isolates; MIC50 (Crohn's AIEC Isolates [14]): 4 to 8 µg/mL (≈ 9.65 to 19.3 µM); MIC (Crohn's AIEC Isolates [14]; Crohn's AIEC isolate #14): 16 µg/mL (≈ 38.6 µM); MIC (Crohn's AIEC Isolates [14]; Crohn's AIEC isolate #32): 4 µg/mL (≈ 9.65 µM); MIC (Crohn's AIEC Isolates [14]; Crohn's AIEC isolate #35): 16 µg/mL (≈ 38.6 µM); MIC (Crohn's AIEC Isolates [14]; Crohn's AIEC isolate #40): 8 µg/mL (≈ 19.3 µM); MIC (Crohn's AIEC Isolates [14]; Crohn's AIEC isolate #49): 4 µg/mL (≈ 9.65 µM); MIC (Crohn's AIEC Isolates [14]; Crohn's AIEC isolate #51): 8 µg/mL (≈ 19.3 µM)
